Laboratory results published in PubChem BioAssay (NCI).
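Assay format: 96-well plates, 48-hour exposure. At the GI50, growth is halved. TGI is the concentration that stops growth completely.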

Experiments:
Experiment in all cases: inhibition of tumour cell growth, NCI panel, 48 h
[1] = test system: HOP-62 NSCLC
[2] = test system: K-562 leukemia
[3] = test system: SNB-19 CNS
[4] = test system: UACC-62 melanoma
[5] = test system: HCT-116 colon
[6] = test system: U251 CNS
[7] = test system: RXF 393 renal
[8] = test system: HCT-15 colon
[9] = test system: IGROV1 ovarian
[10] = test system: SW-620 colon
[11] = test system: UACC-257 melanoma
[12] = test system: MDA-MB-231 breast
[13] = test system: KM12 colon
[14] = test system: CAKI-1 renal
[15] = test system: MDA-MB-435
[16] = test system: CCRF-CEM leukemia
[17] = test system: OVCAR-8 ovarian
[18] = test system: SF-539 CNS
[19] = test system: EKVX NSCLC
[20] = test system: NCI-H226 lung
[21] = test system: A498 renal
[22] = test system: OVCAR-5 ovarian
[23] = test system: MCF7 breast
[24] = test system: RPMI-8226 leukemia
[25] = test system: LOX IMVI melanoma
[26] = test system: COLO 205 colon
[27] = test system: NCI-H460 lung
[28] = test system: SF-295 CNS
[29] = test system: DU-145 prostate
[30] = test system: SK-MEL-2 melanoma
[31] = test system: NCI-H522 lung
[32] = test system: SK-MEL-5 melanoma
[33] = test system: UO-31 renal
[34] = test system: HL-60(TB) leukemia
[35] = test system: A549 NSCLC
[36] = test system: NCI-H23 lung
[37] = test system: SK-MEL-28 melanoma
[38] = test system: MALME-3M melanoma
[39] = test system: SK-OV-3 ovarian
[40] = test system: SR leukemia
[41] = test system: 786-0 renal
[42] = test system: M14 melanoma
[43] = test system: SN12C renal
[44] = test system: PC-3 prostate
[45] = test system: TK-10 renal
[46] = test system: MOLT-4 leukemia
[47] = test system: T-47D breast
[48] = test system: HS 578T breast
[49] = test system: OVCAR-4 ovarian
[50] = test system: NCI/ADR-RES ovarian
[51] = test system: SF-268 CNS
[52] = test system: OVCAR-3 ovarian

## CCOC(=O)/C(C#N)=C\C=C(\Sc1nc2ccccc2s1)c1ccc(Cl)cc1
[1]
  GI50: 29.1 µM
  TGI: 72.2 µM
[2]
  GI50: 20.2 µM
  TGI: > 100 µM
[3]
  GI50: 66.6 µM
  TGI: > 100 µM
[4]
  GI50: 29.8 µM
  TGI: 81.5 µM
[5]
  GI50: 17.1 µM
  TGI: 33.1 µM
[6]
  GI50: 29 µM
  TGI: > 100 µM
[7]
  GI50: 18.3 µM
  TGI: 37.6 µM
[8]
  GI50: 16.4 µM
  TGI: 45.2 µM
[9]
  GI50: 18.8 µM
  TGI: 37.6 µM
[10]
  GI50: 14.3 µM
  TGI: 39.2 µM
[11]
  GI50: 13.7 µM
  TGI: 46.8 µM
[12]
  GI50: 50.9 µM
  TGI: > 100 µM
[13]
  GI50: 38 µM
  TGI: > 100 µM
[14]
  GI50: 19.5 µM
  TGI: 41.4 µM
[15]
  GI50: 16.8 µM
  TGI: 35.3 µM
[16]
  GI50: 2280 nM
  TGI: 9.5 µM
[17]
  GI50: 30.4 µM
  TGI: 83.9 µM
[18]
  GI50: 22.1 µM
  TGI: 40.8 µM
[19]
  GI50: 14.8 µM
  TGI: 31.6 µM
[20]
  GI50: 24 µM
  TGI: 46.7 µM
[21]
  GI50: 27.7 µM
  TGI: 72.5 µM
[22]
  GI50: > 100 µM
  TGI: > 100 µM
[23]
  GI50: 29.1 µM
  TGI: 84.5 µM
[24]
  GI50: 2470 nM
  TGI: 14 µM
[25]
  GI50: 10.9 µM
  TGI: > 100 µM
[26]
  GI50: 20.1 µM
  TGI: 42.8 µM
[27]
  GI50: 80.8 µM
  TGI: > 100 µM
[28]
  GI50: 37.9 µM
  TGI: > 100 µM
[29]
  GI50: 18.7 µM
  TGI: 35.4 µM
[30]
  GI50: 14.8 µM
  TGI: 33.5 µM
[31]
  GI50: 18.5 µM
  TGI: 41.4 µM
[32]
  GI50: 15.1 µM
  TGI: 31.9 µM
[33]
  GI50: 17 µM
  TGI: 35.4 µM
[34]
  GI50: 24.2 µM
  TGI: > 100 µM
[35]
  GI50: > 100 µM
  TGI: > 100 µM
[36]
  GI50: 20.9 µM
  TGI: 38.9 µM
[37]
  GI50: 25.5 µM
  TGI: 69.5 µM
[38]
  GI50: 19.4 µM
  TGI: 37.9 µM
[39]
  GI50: 39.6 µM
  TGI: > 100 µM
[40]
  GI50: 4.91 µM
  TGI: 46.9 µM
[41]
  GI50: 19.3 µM
  TGI: 36.3 µM
[42]
  GI50: 26.4 µM
  TGI: 54.3 µM
[43]
  GI50: 19.9 µM
  TGI: 45.2 µM
[44]
  GI50: 13.5 µM
  TGI: 26.3 µM
[45]
  GI50: 20 µM
  TGI: 37.3 µM
[46]
  GI50: 3.88 µM
  TGI: > 100 µM
[47]
  GI50: 20.3 µM
  TGI: 45.1 µM
[48]
  GI50: 31.6 µM
  TGI: 68 µM
[49]
  GI50: 22 µM
  TGI: 57.8 µM
[50]
  GI50: 27.5 µM
  TGI: 61.2 µM
[51]
  GI50: 31.8 µM
  TGI: > 100 µM
[52]
  GI50: 14.4 µM
  TGI: 27.5 µM
